Measurements: BindingDB's records for doi:10.1021/jm0201924 (Senju Pharmaceutical, 2003)

Each compound was assayed against Calpain-1 (Sus scrofa) (assay: In vitro inhibition of porcine mu-calpain.).

`CC(C)[C@H](NS(=O)(=O)c1ccc(F)cc1)C(=O)N[C@H](C)C=O` [2-(4-Fluoro-benzenesulfonylamino)-3-methyl-N-(1-methyl-2-oxo-ethyl)-butyramide] was tested. Which IC50 did it give?
Its IC50 is 630 nM.

How did the IC50 turn out when `CC(C)[C@H](NS(=O)(=O)c1ccc(F)cc1)C(=O)N[C@@H](C=O)Cc1ccccc1` [2-(4-Fluoro-benzenesulfonylamino)-N-(1-formyl-2-phenyl-ethyl)-3-methyl-butyramide] was run?
Its IC50 is 27 nM.

With `CC(C)C[C@H](C=O)NC(=O)[C@H](C(C)C)N(C)S(=O)(=O)c1ccc(F)cc1` [2-[(4-Fluoro-benzenesulfonyl)-methyl-amino]-N-(1-formyl-3-methyl-butyl)-3-methyl-butyramide] as the compound, how does the IC50 read?
The IC50 was 21000 nM.

Which IC50 does the source give for `CC(C)C[C@H](C=O)NC(=O)[C@@H](NS(C)(=O)=O)C(C)C` [N-(1-Formyl-3-methyl-butyl)-2-methanesulfonylamino-3-methyl-butyramide] here?
The IC50 was 830 nM.

Which IC50 does the source give for `CC(C)[C@H](NS(=O)(=O)c1ccc(F)cc1)C(=O)N[C@@H](C=O)Cc1c[nH]c2ccccc12` [2-(4-Fluoro-benzenesulfonylamino)-N-[1-formyl-2-(1H-indol-3-yl)-ethyl]-3-methyl-butyramide] here?
The IC50 was 23 nM.

Which IC50 does the source give for `Cc1ccc(S(=O)(=O)N[C@H](C(=O)N[C@@H](C=O)CC(C)C)C(C)C)cc1` [N-(1-Formyl-3-methyl-butyl)-3-methyl-2-(toluene-4-sulfonylamino)-butyramide] here?
Its IC50 is 28 nM.

With `CC(C)C[C@H](C=O)NC(=O)[C@@H](NS(=O)(=O)c1ccc(Cl)cc1)C(C)C` [2-(4-Chloro-benzenesulfonylamino)-N-(1-formyl-3-methyl-butyl)-3-methyl-butyramide] as the compound, how does the IC50 read?
The IC50 was 31 nM.

Which IC50 does the source give for `Cc1ccc(S(=O)(=O)N[C@H](C(=O)N[C@@H](C=O)Cc2ccccc2)C(C)C)cc1` [N-(1-Formyl-2-phenyl-ethyl)-3-methyl-2-(toluene-4-sulfonylamino)-butyramide] here?
Its IC50 is 18 nM.

`CC(C)[C@H](NS(=O)(=O)c1ccc2ccccc2c1)C(=O)N[C@@H](C=O)Cc1ccccc1` [N-(1-Formyl-2-phenyl-ethyl)-3-methyl-2-(naphthalene-2-sulfonylamino)-butyramide] was tested. Which IC50 did it give?
The IC50 was 14 nM.

For `CC(C)[C@H](NS(=O)(=O)c1ccc(Cl)cc1)C(=O)N[C@@H](C=O)Cc1c[nH]c2ccccc12` [2-(4-Chloro-benzenesulfonylamino)-N-[1-formyl-2-(1H-indol-3-yl)-ethyl]-3-methyl-butyramide], which IC50 is on record?
Its IC50 is 13 nM.

`CC(C)[C@H](NS(=O)(=O)c1ccc(Cl)cc1)C(=O)N[C@@H](C=O)Cc1ccccc1` [2-(4-Chloro-benzenesulfonylamino)-N-(1-formyl-2-phenyl-ethyl)-3-methyl-butyramide] was tested. Which IC50 did it give?
Its IC50 is 14 nM.

`CC(C)C[C@H](C=O)NC(=O)[C@@H](NS(=O)(=O)c1ccc2ccccc2c1)C(C)C` [N-(1-Formyl-3-methyl-butyl)-3-methyl-2-(naphthalene-2-sulfonylamino)-butyramide] was tested. Which IC50 did it give?
The IC50 was 10 nM.
